Measured values: US9643976B2, “Solvates of darunavir” (Aurobindo Pharma Ltd., priority 2012, dated 2017)

Assays:
[1] = hygroscopicity at moderate or high relative humidity at 25° C.; assay type: physicochemical
Excerpt: Further, the isolation of Darunavir ethanolate involves special precautions during isolation, drying and powder processing, which is onerous during the large scale manufacturing of Darunavir ethanolate.

[2] = hygroscopic testing (solvent content before and after); details: for Final (Solvent content): after hygroscopic testing at 25° C.±2° C. and 80% RH±2° C. for 24 h, solvent replaced with water; for Initial (Solvent content): before hygroscopic testing

Row | SMILES | hygroscopicity / conversion to hydrate [1] | Final (Solvent content) [2] [%] | Initial (Solvent content) [2] [%]
1 | CC(C)CN(C[C@@H](O)[C@H](Cc1ccccc1)NC(=O)O[C@H]1CO[C@H]2OCC[C@H]21)S(=O)(=O)c1ccc(N)cc1 [Darunavir ethanolate] | hygroscopic and converts to Darunavir hydrate | 0.67 | 6.75
2 | CC(C)CN(C[C@@H](O)[C@H](Cc1ccccc1)NC(=O)O[C@H]1CO[C@H]2OCC[C@H]21)S(=O)(=O)c1ccc(N)cc1 [Darunavir propylene glycolate] |  | 10.37 | 11.51
